Read-outs that look alike come from different tables or passages of the source.
Experiments:
[1] = test system: HCV sub-genomic replicon in GS4.3 cells (HuH-7 hepatoma cells); assay: Quantitation by ELISA of Neomycin phosphotransferase II (NPTII) in the HCV sub-genomic replicon, GS4.3; assay type: cell-based, hepatitis C virus
Method: The HCV sub-genomic replicon (1377/NS3-3′, accession No. AJ242652), stably maintained in HuH-7 hepatoma cells, was created by Lohmann et al. Science 285: 110-113 (1999). The replicon-containing cell culture, designated GS4.3, was obtained from Dr. Christoph Seeger of the Institute for Cancer Research, Fox Chase Cancer Center, Philadelphia, Pa.
GS4.3 cells were maintained at 37° C., 5% CO2, in DMEM (Gibco 11965-092) supplemented with L-glutamine 200 mM (100×) (Gibco25030-081), non-essential amino acids (NEAA) (Biowhittaker 13-114E), heat-inactivated (HI) Fetal Bovine Serum (FBS) (Hyclone SH3007.03) and 750 μg/ml geneticin (G418) (Gibco 10131-035). Cells were sub-divided 1:3 or 4 every 2-3 days.
24 h prior to the assay, GS4.3 cells were collected, counted, and plated in 96-well plates (Costar 3585) at 7500 cells/well in 100 μl standard maintenance medium (above) and incubated in the conditions above. To initiate the assay, culture medium was removed, cells were washed once with PBS (Gibco 10010-023) and 90 μl Assay Medium (DMEM, L-glutamine, NEAA, 10% HI FBS, no G418) was added. Inhibitors were made as a 10× stock in Assay Medium, (3-fold dilutions from 10 μM to 56 pM final concentration, final DMSO concentration 1%), 10 μl were added to duplicate wells, plates were rocked to mix, and incubated as above for 72 h.
An NPTII Elisa kit was obtained from AGDIA, Inc. (Compound direct ELISA test system for Neomycin Phosphotransferase II, PSP 73000/4800). Manufacturer's instructions were followed, with some modifications. 10×PEB-1 lysis buffer was made up to include 500 μM PMSF (Sigma P7626, 50 mM stock in isopropanol). After 72 h incubation, cells were washed once with PBS and 150 μl PEB-1 with PMSF was added per well. Plates were agitated vigorously for 15 minutes, room temperature, then frozen at −70° C. Plates were thawed, lysates were mixed thoroughly, and 100 μl were applied to an NPTII Elisa plate. A standard curve was made. Lysate from DMSO-treated control cells was pooled, serially diluted with PEB-1 with PMSF, and applied to duplicate wells of the ELISA plate, in a range of initial lysate amount of 150 ul-2.5 ul. In addition, 100 μl buffer alone was applied in duplicate as a blank. Plates were sealed and gently agitated at room temperature for 2 h. Following capture incubation, the plates were washed 5×300 μl with PBS-T (0.5% Tween-20, PBS-T was supplied in the ELISA kit). For detection, a 1× dilution of enzyme conjugate diluent MRS-2 (5×) was made in PBS-T, into which 1:100 dilutions of enzyme conjugates A and B were added, as per instructions. Plates were resealed, and incubated with agitation, covered, room temperature, for 2 h. The washing was then repeated and 100 μl of room temperature TMB substrate was added. After approximately 30 minutes incubation (room temperature, agitation, covered), the reaction was stopped with 50 μl 3M sulfuric acid. Plates were read at 450 nm on a Molecular Devices Versamax plate reader.
Inhibitor effect was expressed as a percentage of DMSO-treated control signal, and inhibition curves were calculated using a 4-parameter equation: y=A+((B−A)/(1+((C/x)^D))), where C is half-maximal activity or EC50.

[2] = target: T1, full-length NS3/NS4A-2 (HCV NS3 protease) (Hepatitis C virus genotype 1a, UniProt P27958); assay: NS3-NS4 protease assay / NS3 inhibition assay (RETS1 substrate, fluorescence kinetic read); assay type: biochemical
T1 construct: Recombinant E. coli or Baculovirus full-length NS3 was diluted to 3.33 μM with assay buffer; made in house; host or cells: E. coli or baculovirus (BV) expression system
Summary of the method: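 Full-length NS3 from E. coli (2 nM in assay) or baculovirus (3 nM) was precomplexed with excess NS4A-2 peptide, then preincubated 10 min at room temperature with serially diluted compounds starting at 50 microM. Reaction was started with RETS1 substrate at 8 μM before addition and read kinetically for 30 min (ex 335/em 495 nm). Four-parameter IC50s were converted to Ki by Cheng-Prusoff using Km 2.03 μM (E. coli) or 1.74 μM (BV).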

[3] = Hepatitis C virus, Huh-7, GS4.3 cells, 72 h incubation, NPTII ELISA, read-out: Replicon EC50
[4] = recombinant E. coli or Baculovirus full-length NS3 with NS4A-2, read-out: NS3-NS4 IC50

T1 sequence (P27958 1027-1657): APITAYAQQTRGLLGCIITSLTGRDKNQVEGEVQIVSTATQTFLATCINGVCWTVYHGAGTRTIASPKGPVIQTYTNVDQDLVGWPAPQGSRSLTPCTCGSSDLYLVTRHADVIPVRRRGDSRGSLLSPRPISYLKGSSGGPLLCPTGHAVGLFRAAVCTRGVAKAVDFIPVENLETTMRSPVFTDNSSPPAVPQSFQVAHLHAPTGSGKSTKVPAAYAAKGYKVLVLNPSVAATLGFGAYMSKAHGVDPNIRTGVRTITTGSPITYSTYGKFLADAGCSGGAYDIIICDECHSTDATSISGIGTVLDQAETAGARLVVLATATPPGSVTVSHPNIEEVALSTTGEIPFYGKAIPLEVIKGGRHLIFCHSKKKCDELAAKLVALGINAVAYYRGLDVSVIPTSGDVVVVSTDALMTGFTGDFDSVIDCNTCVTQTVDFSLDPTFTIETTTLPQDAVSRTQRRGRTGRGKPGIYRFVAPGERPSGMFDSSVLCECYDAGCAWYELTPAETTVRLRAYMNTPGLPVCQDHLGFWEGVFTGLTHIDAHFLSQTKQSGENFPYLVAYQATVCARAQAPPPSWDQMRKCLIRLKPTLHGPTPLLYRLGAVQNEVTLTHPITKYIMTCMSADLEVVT

Row | Molecule | EC50 [1, 3] [nM] | IC50 [2, 4] [nM] | IC50 [2] [nM] | EC50 ([1]; Table 26, read-out: EC50) [nM]
1 | O=C1N[C@]2(C(=O)NS(=O)(=O)C3CC3)C[C@H]2/C=C\CCCCC[C@H](Nc2nc(-c3ccccc3)cs2)C(=O)N2C[C@H](OC(=O)N3Cc4cccc(F)c4C3)C[C@@H]12 [Compound 927, (2R,6S,13aS,14aR,16aS,Z)-14a-(cyclopropylsulfonylcarbamoyl)-5,16-dioxo-6-(4-phenylthiazol-2-ylamino)-1,2,3,5,6,7,8,9,10,11,13a,14,14a,15,16,16a-hexadecahydrocyclopropa[e]pyrrolo[1,2-a][1,4]diazacyclopentadecin-2-yl 4-fluoroisoindoline-2-carboxylate] | < 100 | < 100 | – | –
2 | O=C1N[C@]2(C(=O)NS(=O)(=O)C3CC3)C[C@H]2/C=C\CCCCC[C@H](NCc2ccc(F)c(F)c2)C(=O)N2C[C@H](OC(=O)N3Cc4cccc(F)c4C3)C[C@@H]12 [Compound 904] | < 100 | < 100 | – | –
3 | CC(C)(C)OC(=O)N[C@H]1CCCCC/C=C\[C@@H]2C[C@@]2(C(=O)NS(=O)(=O)C2CC2)NC(=O)[C@@H]2C[C@@H](OC(=O)N3Cc4cccc(N5CCOCC5)c4C3)CN2C1=O [Compound 158] | < 100 | < 100 | – | –
4 | CC(C)(C)OC(=O)N[C@H]1CCCCC/C=C\[C@@H]2C[C@@]2(C(=O)O)NC(=O)[C@@H]2C[C@@H](OC(=O)N3Cc4ccc(N5CCOCC5)cc4C3)CN2C1=O [Compound 176] | > 10000 | < 100 | – | –
5 | O=C(N[C@H]1CCCCC/C=C\[C@@H]2C[C@@]2(C(=O)NS(=O)(=O)N(CC(F)(F)F)CC(F)(F)F)NC(=O)[C@@H]2C[C@@H](OC(=O)N3Cc4cccc(F)c4C3)CN2C1=O)OC1CCCC1 [Compound 224] | < 10000 | < 1000 | – | –
6 | O=C1N[C@]2(C(=O)NS(=O)(=O)C3CC3)C[C@H]2/C=C\CCCCC[C@H](NC2CCCC2)C(=O)N2C[C@H](OC(=O)N3Cc4cccc(F)c4C3)C[C@@H]12 [Compound 919] | < 10000 | < 100 | – | –
7 | O=C(N[C@H]1CCCCC/C=C\[C@@H]2C[C@@]2(C(=O)O)NC(=O)C2C[C@@H](OC(=O)N3Cc4cccc(F)c4C3)CN2C1=O)c1cnccn1 (stereo partly drawn) [Compound 181] | < 10000 | < 1000 | – | –
8 | O=C(N[C@H]1CCCCC/C=C\[C@@H]2C[C@@]2(C(=O)NS(=O)(=O)N2CCC2)NC(=O)[C@@H]2C[C@@H](OC(=O)N3CCc4ccccc4C3)CN2C1=O)OC1CCCC1 [Compound 233] | < 100 | < 100 | – | –
9 | O=C1N[C@]2(C(=O)NS(=O)(=O)C3CC3)C[C@H]2/C=C\CCCCC[C@H](NCC2CC2)C(=O)N2C[C@H](OC(=O)N3Cc4cccc(F)c4C3)C[C@@H]12 [Compound 910] | < 1000 | < 100 | – | –
10 | CC(C)(C)OC(=O)N[C@H]1CCCCC/C=C\[C@@H]2C[C@@]2(C(=O)NCC2CC2)NC(=O)[C@@H]2C[C@@H](OC(=O)N3Cc4cccc(Cl)c4C3)CN2C1=O [Compound 627] | < 100 | < 100 | – | –
11 | CC(C)(C)CN[C@H]1CCCCC/C=C\[C@@H]2C[C@@]2(C(=O)NS(=O)(=O)C2CC2)NC(=O)[C@@H]2C[C@@H](OC(=O)N3Cc4cccc(F)c4C3)CN2C1=O [Compound 920] | < 100 | < 100 | – | –
12 | CC(C)(C)OC(=O)N[C@H]1CCCCC/C=C\[C@@H]2C[C@@]2(C(=O)NCc2cccc(C(=O)O)c2)NC(=O)[C@@H]2C[C@@H](OC(=O)N3Cc4cccc(F)c4C3)CN2C1=O [Compound 617] | > 10000 | < 100 | – | –
13 | C=CCC1(S(=O)(=O)NC(=O)[C@@]23C[C@H]2/C=C\CCCCC[C@H](NC(=O)OC(C)(C)C)C(=O)N2C[C@H](OC(=O)N4Cc5ccccc5C4)C[C@H]2C(=O)N3)CC1 [Compound 105] | < 100 | < 100 | – | –
14 | CC(C)(C)OC(=O)N[C@H]1CCCCC/C=C\[C@@H]2C[C@@]2(C(=O)NC(=O)C2CC2)NC(=O)[C@@H]2C[C@@H](OC(=O)N3Cc4ccccc4C3)CN2C1=O [Compound 701] | < 100 | < 100 | – | –
15 | CC(C)(C)OC(=O)N[C@H]1CCCCC/C=C\[C@@H]2C[C@@]2(C(=O)NS(=O)(=O)C2CC2)NC(=O)[C@@H]2C[C@@H](OC(=O)N3CCc4c(Cl)ccc(Cl)c4C3)CN2C1=O [Compound 256] | < 100 | < 100 | – | –
16 | COCC1c2cccc(F)c2CCN1C(=O)O[C@@H]1CC2C(=O)N[C@]3(C(=O)NS(=O)(=O)C4CC4)C[C@H]3/C=C\CCCCC[C@H](N)C(=O)N2C1 (stereo partly drawn) [Compound 106] | > 10000 | < 1000 | – | –
17 | Cc1ccccc1S(=O)(=O)NC(=O)[C@@]12C[C@H]1/C=C\CCCCC[C@H](N)C(=O)N1C[C@H](OC(=O)N3Cc4cccc(F)c4C3)C[C@H]1C(=O)N2 [Compound 159] | < 1000 | – | < 100 | –
18 | CC(C)(C)OC(=O)N[C@H]1CCC(O)CC/C=C\[C@@H]2C[C@@]2(C(=O)O)NC(=O)[C@@H]2C[C@@H](OC(=O)N3Cc4cccc(F)c4C3)CN2C1=O (stereo partly drawn) [Compound 1017] | > 10000 | < 1000 | – | –
19 | CC(C)(C)CCN[C@H]1CCCCC/C=C\[C@@H]2C[C@@]2(C(=O)NS(=O)(=O)C2CC2)NC(=O)[C@@H]2C[C@@H](OC(=O)N3Cc4cccc(F)c4C3)CN2C1=O [Compound 912] | < 100 | < 100 | – | –
20 | N[C@H]1CCCCC/C=C\[C@@H]2C[C@@]2(C(=O)NS(=O)(=O)N2CCCC2)NC(=O)[C@@H]2C[C@@H](OC(=O)N3Cc4cccc(Cl)c4C3)CN2C1=O [Compound 220] | < 1000 | – | < 100 | –
21 | CC(C)(C)NC(=S)N[C@H]1CCCCC/C=C\[C@@H]2C[C@@]2(C(=O)NS(=O)(=O)C2CC2)NC(=O)[C@@H]2C[C@@H](OC(=O)N3Cc4cccc(F)c4C3)CN2C1=O [Compound 239] | < 100 | < 100 | – | –
22 | (1S,4R,6S,14S) tert-butyl 4-Cyclopropanesulfonylaminocarbonyl-2,15-dioxo-3,16-diaza-tricyclo[14.3.0.0^4,6]nonadec-7-ene-14-yl carbamate [Compound 2137] | – | > 10000 | – | > 10000
23 | O=C(CCC(F)(F)F)N[C@H]1CCCCC/C=C\[C@@H]2C[C@@]2(C(=O)O)NC(=O)[C@@H]2C[C@@H](OC(=O)N3Cc4cccc(Cl)c4C3)CN2C1=O [Compound 142] | < 10000 | < 100 | – | –
24 | O=C(N[C@H]1CCCCC/C=C\[C@@H]2C[C@@]2(C(=O)NS(=O)(=O)C2CC2)NC(=O)[C@@H]2C[C@@H](OC(=O)N3Cc4cccc(Cl)c4C3)CN2C1=O)OC1CCCC1 [Compound 141] | < 100 | < 100 | – | –
25 | CCC(C)(C)Nc1c(N[C@H]2CCCCC/C=C\[C@@H]3C[C@@]3(C(=O)NS(=O)(=O)C3CC3)NC(=O)[C@@H]3C[C@@H](OC(=O)N4Cc5cccc(F)c5C4)CN3C2=O)c(=O)c1=O [Compound 194] | < 10000 | < 100 | – | –
26 | CN(Cc1ccccc1)C(=O)O[C@@H]1C[C@H]2C(=O)N[C@]3(C(=O)NS(=O)(=O)C4CC4)C[C@H]3/C=C\CCCCC[C@H](NC(=O)OC(C)(C)C)C(=O)N2C1 [Compound 245] | < 1000 | < 100 | – | –
27 | CC(C)(C)OC(=O)N[C@H]1CCCCC/C=C\[C@@H]2C[C@@]2(C(=O)NCCN2CCCCC2)NC(=O)[C@@H]2C[C@@H](OC(=O)N3Cc4cccc(F)c4C3)CN2C1=O [Compound 604] | > 10000 | > 10000 | – | –
